Experiments:
Assay in all cases: relative viability (nuclei count vs DMSO), 5 days (fraction); higher = more cells survive
[1] = tested on: NCI-H2087
How it was run: (§1)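 The day after seeding in 1536-well plates, lung cancer cell lines were treated by pin tool with a single drug, or with a fixed anchor-drug dose together with five library-drug doses (not always all listed) in √10 steps. After 5 days, a combined fix-and-stain solution (final 0.05% Triton X-100, 1% formaldehyde, 1 ug/ml Hoechst) was added. Nuclei counted on 4× images gave relative viability as treated counts over vehicle counts, reported as the median of duplicate plates.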

[2] = tested on: UMC-11
How it was run: as §1

[3] = tested on: NCI-H1355
How it was run: as §1

[4] = tested on: NCI-H1651
How it was run: as §1

[5] = tested on: EMC-BAC-2
How it was run: as §1

[6] = tested on: NCI-H650
How it was run: as §1

[7] = tested on: EPLC-272H
How it was run: as §1

[8] = tested on: NCI-H2023
How it was run: as §1

[9] = tested on: NCI-H520
How it was run: as §1

[10] = tested on: LCLC-97TM1
How it was run: as §1

[11] = tested on: SK-MES-1
How it was run: as §1

[12] = tested on: HCC-44
How it was run: as §1

[13] = tested on: NCI-H1793
How it was run: as §1

[14] = tested on: H3255
How it was run: as §1

[15] = tested on: HCC-827
How it was run: as §1

[16] = tested on: NCI-H1944
How it was run: as §1

[17] = tested on: NCI-H2405
How it was run: as §1

[18] = tested on: LCLC-103H
How it was run: as §1

[19] = tested on: NCI-H1395
How it was run: as §1

[20] = tested on: ChaGo-K-1
How it was run: as §1

[21] = tested on: NCI-H2085
How it was run: as §1

[22] = tested on: NCI-H322M
How it was run: as §1

**Q.** O=C(O)c1ccc(-c2c[nH]c3ncc(-c4ccccc4)cc23)cc1C1CCCC1 + CC(=O)Nc1cccc(-n2c(=O)n(C3CC3)c(=O)c3c(Nc4ccc(I)cc4F)n(C)c(=O)c(C)c32)c1 [Trametinib] (partner 0.02 µM) was tested. Which relative viability ([1]; first compound 0.04 µM) did it give?
**A.** The relative viability was 0.204.

**Q.** What about the relative viability ([1]; first compound 0.1265 µM) of the same compound?
**A.** Its relative viability is 0.209.

**Q.** And the relative viability ([1]; first compound 0.4 µM)?
**A.** The relative viability was 0.179.

**Q.** What about the relative viability ([1]; first compound 1.265 µM) of the same compound?
**A.** The relative viability was 0.205.

**Q.** What about the relative viability ([2]; first compound 0.04 µM) of the same compound?
**A.** Its relative viability is 0.702.

**Q.** And the relative viability ([2]; first compound 0.1265 µM)?
**A.** The relative viability was 0.719.

**Q.** And the relative viability ([2]; first compound 0.4 µM)?
**A.** Its relative viability is 0.711.

**Q.** What about the relative viability ([2]; first compound 1.265 µM) of the same compound?
**A.** Its relative viability is 0.641.

**Q.** What about the relative viability ([3]; first compound 0.04 µM) of the same compound?
**A.** Its relative viability is 0.42.

**Q.** What about the relative viability ([3]; first compound 0.1265 µM) of the same compound?
**A.** The relative viability was 0.412.

**Q.** And the relative viability ([3]; first compound 0.4 µM)?
**A.** Its relative viability is 0.459.

**Q.** What about the relative viability ([3]; first compound 1.265 µM) of the same compound?
**A.** Its relative viability is 0.391.

**Q.** What about the relative viability ([4]; first compound 0.04 µM) of the same compound?
**A.** The relative viability was 0.822.

**Q.** And the relative viability ([4]; first compound 0.1265 µM)?
**A.** The relative viability was 0.853.

**Q.** What about the relative viability ([4]; first compound 0.4 µM) of the same compound?
**A.** The relative viability was 0.829.

**Q.** And the relative viability ([4]; first compound 1.265 µM)?
**A.** The relative viability was 0.714.

**Q.** What about the relative viability ([5]; first compound 0.04 µM) of the same compound?
**A.** The relative viability was 0.903.

**Q.** And the relative viability ([5]; first compound 0.1265 µM)?
**A.** Its relative viability is 0.976.

**Q.** And the relative viability ([5]; first compound 0.4 µM)?
**A.** Its relative viability is 1.05.

**Q.** And the relative viability ([5]; first compound 1.265 µM)?
**A.** Its relative viability is 0.973.

**Q.** What about the relative viability ([6]; first compound 0.04 µM) of the same compound?
**A.** The relative viability was 0.935.

**Q.** What about the relative viability ([6]; first compound 0.1265 µM) of the same compound?
**A.** The relative viability was 0.943.

**Q.** What about the relative viability ([6]; first compound 0.4 µM) of the same compound?
**A.** The relative viability was 0.879.

**Q.** And the relative viability ([6]; first compound 1.265 µM)?
**A.** Its relative viability is 0.579.

**Q.** What about the relative viability ([7]; first compound 0.04 µM) of the same compound?
**A.** The relative viability was 0.307.

**Q.** And the relative viability ([7]; first compound 0.1265 µM)?
**A.** The relative viability was 0.27.

**Q.** What about the relative viability ([7]; first compound 0.4 µM) of the same compound?
**A.** Its relative viability is 0.283.

**Q.** What about the relative viability ([7]; first compound 1.265 µM) of the same compound?
**A.** The relative viability was 0.276.

**Q.** What about the relative viability ([8]; first compound 0.04 µM) of the same compound?
**A.** The relative viability was 0.525.

**Q.** And the relative viability ([8]; first compound 0.1265 µM)?
**A.** The relative viability was 0.55.

**Q.** What about the relative viability ([8]; first compound 0.4 µM) of the same compound?
**A.** The relative viability was 0.618.

**Q.** What about the relative viability ([8]; first compound 1.265 µM) of the same compound?
**A.** The relative viability was 0.413.

**Q.** And the relative viability ([9]; first compound 0.04 µM)?
**A.** Its relative viability is 0.673.

**Q.** What about the relative viability ([9]; first compound 0.1265 µM) of the same compound?
**A.** Its relative viability is 0.775.

**Q.** What about the relative viability ([9]; first compound 0.4 µM) of the same compound?
**A.** Its relative viability is 0.672.

**Q.** What about the relative viability ([9]; first compound 1.265 µM) of the same compound?
**A.** The relative viability was 0.437.

**Q.** What about the relative viability ([10]; first compound 0.04 µM) of the same compound?
**A.** Its relative viability is 0.202.

**Q.** And the relative viability ([10]; first compound 0.1265 µM)?
**A.** Its relative viability is 0.204.

**Q.** What about the relative viability ([10]; first compound 0.4 µM) of the same compound?
**A.** Its relative viability is 0.173.

**Q.** What about the relative viability ([10]; first compound 1.265 µM) of the same compound?
**A.** Its relative viability is 0.207.

**Q.** And the relative viability ([11]; first compound 0.04 µM)?
**A.** Its relative viability is 0.57.

**Q.** And the relative viability ([11]; first compound 0.1265 µM)?
**A.** Its relative viability is 0.538.

**Q.** What about the relative viability ([11]; first compound 0.4 µM) of the same compound?
**A.** Its relative viability is 0.521.

**Q.** What about the relative viability ([11]; first compound 1.265 µM) of the same compound?
**A.** The relative viability was 0.524.

**Q.** What about the relative viability ([12]; first compound 0.04 µM) of the same compound?
**A.** Its relative viability is 1.

**Q.** And the relative viability ([12]; first compound 0.1265 µM)?
**A.** Its relative viability is 1.02.

**Q.** And the relative viability ([12]; first compound 0.4 µM)?
**A.** Its relative viability is 0.908.

**Q.** And the relative viability ([12]; first compound 1.265 µM)?
**A.** Its relative viability is 1.01.

**Q.** And the relative viability ([13]; first compound 0.04 µM)?
**A.** Its relative viability is 0.407.

**Q.** And the relative viability ([13]; first compound 0.1265 µM)?
**A.** Its relative viability is 0.51.

**Q.** And the relative viability ([13]; first compound 0.4 µM)?
**A.** The relative viability was 0.497.

**Q.** What about the relative viability ([13]; first compound 1.265 µM) of the same compound?
**A.** The relative viability was 0.34.

**Q.** And the relative viability ([14]; first compound 0.04 µM)?
**A.** Its relative viability is 0.587.

**Q.** And the relative viability ([14]; first compound 0.1265 µM)?
**A.** The relative viability was 0.689.

**Q.** And the relative viability ([14]; first compound 0.4 µM)?
**A.** The relative viability was 0.584.

**Q.** And the relative viability ([14]; first compound 1.265 µM)?
**A.** Its relative viability is 0.625.

**Q.** What about the relative viability ([15]; first compound 0.04 µM) of the same compound?
**A.** Its relative viability is 0.574.

**Q.** And the relative viability ([15]; first compound 0.1265 µM)?
**A.** Its relative viability is 0.575.

**Q.** And the relative viability ([15]; first compound 0.4 µM)?
**A.** Its relative viability is 0.487.

**Q.** What about the relative viability ([15]; first compound 1.265 µM) of the same compound?
**A.** Its relative viability is 0.362.

**Q.** And the relative viability ([16]; first compound 0.04 µM)?
**A.** Its relative viability is 0.405.

**Q.** And the relative viability ([16]; first compound 0.1265 µM)?
**A.** The relative viability was 0.437.

**Q.** And the relative viability ([16]; first compound 0.4 µM)?
**A.** Its relative viability is 0.487.

**Q.** What about the relative viability ([16]; first compound 1.265 µM) of the same compound?
**A.** Its relative viability is 0.37.

**Q.** And the relative viability ([17]; first compound 0.04 µM)?
**A.** Its relative viability is 0.64.

**Q.** And the relative viability ([17]; first compound 0.1265 µM)?
**A.** Its relative viability is 0.651.

**Q.** What about the relative viability ([17]; first compound 0.4 µM) of the same compound?
**A.** Its relative viability is 0.627.

**Q.** And the relative viability ([17]; first compound 1.265 µM)?
**A.** Its relative viability is 0.587.

**Q.** What about the relative viability ([18]; first compound 0.04 µM) of the same compound?
**A.** The relative viability was 0.65.

**Q.** And the relative viability ([18]; first compound 0.1265 µM)?
**A.** The relative viability was 0.697.

**Q.** What about the relative viability ([18]; first compound 0.4 µM) of the same compound?
**A.** Its relative viability is 0.68.

**Q.** And the relative viability ([18]; first compound 1.265 µM)?
**A.** Its relative viability is 0.644.

**Q.** And the relative viability ([19]; first compound 0.04 µM)?
**A.** Its relative viability is 0.987.

**Q.** What about the relative viability ([19]; first compound 0.1265 µM) of the same compound?
**A.** The relative viability was 1.09.

**Q.** And the relative viability ([19]; first compound 0.4 µM)?
**A.** Its relative viability is 1.02.

**Q.** What about the relative viability ([19]; first compound 1.265 µM) of the same compound?
**A.** The relative viability was 0.957.

**Q.** What about the relative viability ([20]; first compound 0.04 µM) of the same compound?
**A.** Its relative viability is 1.15.

**Q.** What about the relative viability ([20]; first compound 0.1265 µM) of the same compound?
**A.** Its relative viability is 0.895.

**Q.** What about the relative viability ([20]; first compound 0.4 µM) of the same compound?
**A.** Its relative viability is 0.89.

**Q.** And the relative viability ([20]; first compound 1.265 µM)?
**A.** Its relative viability is 0.857.

**Q.** And the relative viability ([21]; first compound 0.04 µM)?
**A.** The relative viability was 0.508.

**Q.** And the relative viability ([21]; first compound 0.1265 µM)?
**A.** Its relative viability is 0.488.

**Q.** And the relative viability ([21]; first compound 0.4 µM)?
**A.** Its relative viability is 0.499.

**Q.** And the relative viability ([21]; first compound 1.265 µM)?
**A.** The relative viability was 0.384.

**Q.** And the relative viability ([22]; first compound 0.04 µM)?
**A.** The relative viability was 0.482.

**Q.** What about the relative viability ([22]; first compound 0.1265 µM) of the same compound?
**A.** Its relative viability is 0.633.

**Q.** And the relative viability ([22]; first compound 0.4 µM)?
**A.** The relative viability was 0.524.

**Q.** What about the relative viability ([22]; first compound 1.265 µM) of the same compound?
**A.** Its relative viability is 0.493.

From the supplement of paper PMC10307832
